Results as given in US5990277A, “Semipeptoid farnesyl protein transferase inhibitors and analogs thereof” (Yissum Research Development Company of the Herbrew …, priority 1996, dated 1999).
pIC50: −log10 of the molar value. Where two headings read alike, the source gives them in different places. Each block holds one compound with its values, some of them ahead of it. Square brackets hold non-standard residues; d marks the D form. Ends that are not written are not given here. Peptide text beside a SMILES is read from it. * marks the point of attachment. N(3,4-(MeO)2phenethyl)Gly = COc1ccc(CCNCC(=O)O)cc1OC; Farnesyl = CC(C)=CCC/C(C)=C/CC/C(C)=C/C*; Gly(NCH2CH2Ph) = O=C(O)CNCCc1ccccc1; Gly(N-cHex) = O=C(O)CNC1CCCCC1; NMeV = CN[C@H](C(=O)O)C(C)C; N(iPr)Gly = CC(C)NCC(=O)O; Nphe = O=C(O)CNCc1ccccc1; Nleu = CC(C)CNCC(=O)O

Key:
FT = molecular target: T1, FT (Bos taurus, UniProt P29702+P49355); experiment: Inhibitor farnesylation assay (alternative substrate); format: biochemical, bovine; conditions: incubated with FT and [3H]farnesylpyrophosphate in the absence of Ras
T1 construct: Partial purification of FT from bovine brain; from tissue; host or cells: bovine brain
Method: The third assay checked whether the inhibitor itself undergoes farnesylation. For this purpose, the inhibitor was incubated with the FT enzyme and [^3 H]farnesylpyrophosphate in the absence of Ras.
For examination whether the inhibitors undergo farnesylation a previously described procedure (Goldstein et al., J. Biol. Chem., 1991, 266: 15575) was used. Each reaction mixture contained the following components in a final volume of […]: 40 mM TRIS.HCl pH 7.5, 67 mM NaCl, 5 mM MgCl2, 7 mM ZnCl2, 1 mM DTT, 0.07% (v/v) octyl-b-D-glucopyranoside, 20 pmol of [^3 H]farnesylpyrophosphate 45,000 dpm/pmol, 4 mM peptide or peptoid, and 1 mg of partially purified FT. After incubation at 37° C. for 30 minutes, the entire reaction mixture was spotted onto an aluminum backed Silica Gel thin layer sheet (20×20 cm, Merck), and placed in a tank containing n-propyl-alcohol/ammonium hydroxide/water (6:3:1, v/v/v). The chromatogram was run for 4 hours, sprayed with EN^3 HANCE (Dupont) and exposed to RX film (FUJI) for 4 days at -70° C.

[1] = molecular target: T2, Geranylgeranyl transferase-I (GGT) (Bos taurus, UniProt P29702+Q5EAD5); experiment: Geranylgeranyl transferase-I (GGT) inhibition assay; format: biochemical, bovine; conditions: partially purified GGT, Gst-HRas-CVLL substrate
T2 construct: GGT was partially purified from bovine brain; from tissue; host or cells: bovine brain cytosol
From the text: The second assay estimated the selectivity of the inhibitor towards FT over a related enzyme, geranylgeranyl-protein-transferase-I (GGT), which transfers a C20 -isoprenoid to a thiol group of cysteine of a C-terminal CAAL (SEQ ID NO:17) peptide sequence derived from geranylgeranylpyrophosphate. Geranylgeranylation of normal cellular proteins is 5-10 times more common than farnesylation (Gibbs et al., Cell, 1994, 77: 175; Gibbs, Cell, 1991, 65: 1; Maltese,. FASEB J., 1990, 4: 3319).
A selective FT-inhibitor is considered to cause fewer cytotoxic effects than a nonselective inhibitor of both FT and GGT. GGT activity, for the partially purified GGT enzyme (Moores et al., J. Biol. Chem., 1991, 266: 14603), was quantified by measuring the incorporation of [^3 H]geranylgeranyl from all trans [^3 H]geranylgeranylpyrophosphate, into purified Gst-HRas-CVLL.
GGT was partially purified from bovine brain. Cytosol was prepared and GGT was isolated using a fractogel DEAE column (150×16 mm, Merck) with NaCl gradient, as for FT purification (see Example 15 above). Fractions containing the GGT activity were pooled and stored at -70° C. Hras gene was point mutated using an oligonucleotide directed in vitro mutagenesis system (Amersham version 2.1). The mutated Hras gene was cloned into the GST--frame of a pGEX-1 expression vector, expressed in E. coli strain TG1, and a fusion protein Gst-HRas-CVLL (SEQ ID NO:22) was purified on glutathione agarose.

[2] = molecular target: T3, Farnesyl protein transferase (FT) (Bos taurus, UniProt P29702+P49355); experiment: Farnesyl protein transferase (FT) inhibition assay; format: biochemical, bovine; conditions: for pIC50: partially purified FT, Gst-HRas substrate
T3 construct: Partial purification of FT from bovine brain; from tissue; host or cells: bovine brain
Method: FT activity was quantified by measuring the incorporation of [^3 H]farnesyl from all-trans-[^3 H]farnesylpyrophosphate into purified Gst-HRas.
Partial purification of FT from bovine brain was performed essentially as described by Reiss at al. (Reiss et al, Cell, 1990, 62: 81), except that a fractogel DEAE column (150×16 mm, Merck) was used for the ion exchange chromatagraphy step. GST-HRas expression vector was constructed by cloning the Hras gene into a pGEX-1 vector, and expressed in E. coli strain TG1. The protein was purified using glutathione agarose (Sigma USA). FT inhibition assays were run in 96-well dishes in a reaction volume of […]. The final reaction mixture contained 5 mM GST-HRas, 0.9 mM [^3 H]farnesylpyrophosphate 20,000 dmp/pmol (NEN-Dupont), 1 mg of partially purified FT, 5 mM MgCl2, 3 mM ZnCl2, 40 mM TRIS.HCl pH 7.5, 60 mM NaCl, 1 mM DTT, 0.2 mM Glutathione, 0.03% Octyl-b-D-glucopyranoside, and serial dilutions of inhibitor.
Following incubation at 37° C. for 30 minutes the reactions were stopped by adding 100 ml of 4% sodium dodecyl sulfate (SDS) followed by 100 ml of 30% trichloroacetic acid (TCA). Plates were incubated for 100 minutes on ice, and the precipitates were filtered using a Millipore milliblot™-system (Millipore Corp., Bedford Mass.) with GF/C membranes. The wells were washed twice with 200 ml of 2% SDS/6% TCA and 7 times with […] of 6% TCA. The filters were punched into 4 ml vials and dried at 70° C. for 10 minutes. 3 ml of scintillation fluid was added and radioactivity was monitored by scintillation counting. IC50 values were resolved from dose-response curves of percent control versus log drug concentration, using the Regression program (Blackwell, UK). Each compound was tested 2-4 times.

[3] = molecular target: farnesyl protein transferase (Homo sapiens, UniProt P49354+P49356); conditions: cited from earlier work; for farnesyl protein transferase inhibitory potency in vitro: literature
[4] = test system: Ras processing in cells transformed with v-ras; conditions: cited from earlier work
[5] = test system: Rap1A/K-rev processing in v-Ha-ras transformed NIH3T3 cells; experiment: Protein processing assay in intact cells: Rap1A/K-rev; format: cell-based
Method: Its selectivity towards FT as compared to GGT in whole cells, was determined by its relative inhibitory effects on Ras farnesylation and on Rap1A/Krev geranylgeranylation (Casey, J. Lipid Res. 1992, 33, 1731-1740; Cox et al., Curr. Opin. Cell Biol. 1992, 4, 1008-1016; Garcia et al., J. Biol. Chem. 1993, 268, 18415-18418; and Vogt et al., J. Biol. Chem. 1995, 270, 660-664), respectively. v-Ha-ras transformed NIH3T3 cells were incubated with lovastatin or increasing concentrations of the inhibitor. Cells were lysed and the processed and unprocessed forms of Ras or Rap1A were separated by SDS-PAGE and immunoblotted with anti-Ras or anti-Rap1A antibodies, respectively.
To test the selectivity of compound 12 towards FT in whole cells, the post-translational processing of an endogenous geranylgeranylated protein, Rap1A/K-rev, was analyzed.
v-Ha-ras transformed NIH3T3 fibroblasts were treated with 15 mM lovastatin or the indicated concentrations of compound 12 or vehicle (0.25 mM DTT, 0.25% DMSO), for 48 hr. Cells were lysed (Garcia et al., J. Biol. Chem. 1993, 268, 18415-18418) in 1% Nonidet P-40, 5 mM TRIS.HCl pH 8.0, 5 mM EDTA, 1 mM phenylmethylsulfonyl fluoride, 10 mg/ml aprotonin, 10 mg/ml soybean trypsin inhibitor and 313 mg/ml benzamidine. The lysate was separated by centriflgation and the supernatant used as cell extract. […]

[6] = test system: Ras processing in v-Ha-ras transformed NIH3T3 cells; experiment: Protein processing assay in intact cells: Ras; format: cell-based; conditions: western blot
Method: Its selectivity towards FT as compared to GGT in whole cells, was determined by its relative inhibitory effects on Ras farnesylation and on Rap1A/Krev geranylgeranylation (Casey, J. Lipid Res. 1992, 33, 1731-1740; Cox et al., Curr. Opin. Cell Biol. 1992, 4, 1008-1016; Garcia et al., J. Biol. Chem. 1993, 268, 18415-18418; and Vogt et al., J. Biol. Chem. 1995, 270, 660-664), respectively. v-Ha-ras transformed NIH3T3 cells were incubated with lovastatin or increasing concentrations of the inhibitor. Cells were lysed and the processed and unprocessed forms of Ras or Rap1A were separated by SDS-PAGE and immunoblotted with anti-Ras or anti-Rap1A antibodies, respectively. Lovastatin is a compound which blocks the processing of isoprenylated proteins in cells by inhibiting an early step of the isoprenoid biosynthetic pathway, and therefore serves as a positive control for the inhibition of both geraylgeranylation and farnesylation (Kohl et al., Science 1993, 260, 1934-1937; Garcia et al., J. Biol. Chem. 1993, 268, 18415-18418; Vogt et al., J. Biol. Chem. 1995, 270, 660-664).
After 48 hr of incubation, cell extracts were separated on SDS-PAGE and immunoblotted with anti-Ras antibody.
Cells were lysed (Garcia et al., J. Biol. Chem. 1993, 268, 18415-18418) in 1% Nonidet P-40, 5 mM TRIS.HCl pH 8.0, 5 mM EDTA, 1 mM phenylmethylsulfonyl fluoride, 10 mg/ml aprotonin, 10 mg/ml soybean trypsin inhibitor and 313 mg/ml benzamidine. The lysate was separated by centriflgation and the supernatant used as cell extract. Total protein was separated by SDS-PAGE (40 mg/lane) in 15% acrylamide (0.4% bis-acrylamide) gels, transferred onto nitrocellulose (Schleicher & Schuell, optitran BA-S 85) and probed with anti-Ras antibody Y13-259, or monoclonal anti-Rap1A/K-rev antibody (transduction laboratories). The western blots were visualized using an enhanced chemiluminescence (ECL) detection system.

alternative substrate (inhibitor itself farnesylated) (FT): no
pIC50 [1]: 4.40
pIC50 [2]: 5.52
Compound: CSCC[C@H](NC(=O)CN(Cc1ccccc1)C(=O)CN(CCN(C)C)C(=O)[C@@H](N)CS)C(=O)O [Semipeptoid 7, cysteinyl-(Nα(N,N-dimethylaminoethyl))glycyl-(Nα-benzyl)glycyl-methionine]

alternative substrate (inhibitor itself farnesylated) (FT): no
pIC50 [1]: < 3.40
pIC50 [2]: 5.40
Compound: CSCC[C@H](NC(=O)[C@H](Cc1ccccc1)NC(=O)CN(CCN(C)C)C(=O)[C@@H](N)CS)C(=O)O [Semipeptoid 9, cysteinyl-(Nα(N,N-dimethylaminoethyl))glycyl-phenylalanyl-methionine]

alternative substrate (inhibitor itself farnesylated) (FT): no
pIC50 [1]: 5.30
pIC50 [2]: 7.15
Compound: CSCC[C@H](NC(=O)CN(C(=O)[C@@H](NC(=O)[C@@H](N)CS)C(C)C)C1CCCCC1)C(=O)O [Semipeptoid 4, cysteinyl-valyl-(Nα-cyclohexyl)glycyl-methionine] (H-CV[Gly(N-cHex)]M-OH)

alternative substrate (inhibitor itself farnesylated) (FT): no
pIC50 [1]: 3.72
pIC50 [2]: 4.89
Compound: CSCC[C@H](NC(=O)CN(Cc1ccccc1)C(=O)CN(C(=O)[C@@H](N)CS)C(C)C)C(=O)O [Semipeptoid 5, cysteinyl-(Nα-isopropyl)glycyl-(Nα-benzyl)glycyl-methionine] (H-C[N(iPr)Gly][Nphe]M-OH)

alternative substrate (inhibitor itself farnesylated) (FT): no
pIC50 [1]: 3.81
pIC50 [2]: 4.30
Compound: CSCC[C@H](NC(=O)[C@H](Cc1ccccc1)NC(=O)CN(C(=O)[C@@H](N)CS)C(C)C)C(=O)O [Semipeptoid 8, cysteinyl-(Nα-isopropyl)glycyl-phenylalanyl-methionine] (H-C[N(iPr)Gly]FM-OH)

alternative substrate (inhibitor itself farnesylated) (FT): no
pIC50 [1]: 3.62
pIC50 [2]: 4.12
Compound: CSCC[C@H](NC(=O)[C@H](Cc1ccccc1)NC(=O)CN(CC(C)C)C(=O)[C@@H](N)CS)C(=O)O [Semipeptoid 10, cysteinyl-(Nα-isobutyl)glycyl-phenylalanyl-methionine] (H-C[Nleu]FM-OH)

alternative substrate (inhibitor itself farnesylated) (FT; listed as 11): no
alternative substrate (inhibitor itself farnesylated) (FT; listed as compound 11): non-farnesylated
pIC50 [1]: 6.04
increase of selectivity versus compound 4 ([2]; FT over GGT, versus compound 4): 11 fold
pIC50 [2]: 8.92
IC50 (GGT)/IC50 (FT) ([2]; selectivity ratio): 758
improvement of potency versus compound 4 (FT) ([2]; versus compound 4): 58 fold
Compound: CSCC[C@H](NC(=O)CN(C(=O)[C@H](C(C)C)N(C)C(=O)[C@@H](N)CS)C1CCCCC1)C(=O)O [Semipeptoid 11, cysteinyl-(Nα-methyl)valyl-(Nα-cyclohexyl)glycyl-methionine] (H-C[NMeV][Gly(N-cHex)]M-OH)

Second part, the compound before the results:

Compound: COc1ccc(CCN(CC(=O)N[C@@H](CCSC)C(=O)O)C(=O)[C@@H](NC(=O)[C@@H](N)CS)C(C)C)cc1OC [Semipeptoid 3, cysteinyl-valyl-(Nα-3,4-dimetoxyphenethyl)glycyl-methionine] (H-CV[N(3,4-(MeO)2phenethyl)Gly]M-OH)
alternative substrate (inhibitor itself farnesylated) (FT): no
pIC50 [1]: 4.64
pIC50 [2]: 6.92
times more potent than compound 6 (FT) ([2]; versus compound 6): 33 times

Compound: COc1ccc(CCN(CC(=O)N[C@@H](CCSC)C(=O)O)C(=O)CN(C(=O)[C@@H](N)CS)C(C)C)cc1OC [Semipeptoid 6, cysteinyl-(Nα-isopropyl)glycyl-(Nα-3,4-dimetoxyphenethyl)glycyl-methionine] (H-C[N(iPr)Gly][N(3,4-(MeO)2phenethyl)Gly]M-OH)
alternative substrate (inhibitor itself farnesylated) (FT): no
pIC50 [1]: 4.10
pIC50 [2]: 5.40

Compound: CSCC[C@H](NC(=O)CN(CCc1ccccc1)C(=O)[C@@H](NC(=O)[C@@H](N)CS)C(C)C)C(=O)O [Semipeptoid 2, cysteinyl-valyl-(Nα-phenethyl)glycyl-methionine] (H-CV[Gly(NCH2CH2Ph)]M-OH)
alternative substrate (inhibitor itself farnesylated) (FT): no
pIC50 [1]: 4.52
pIC50 [2]: 6.49
reduction of relative potency versus compound 1 (FT) ([2]; versus compound 1): 3.2 fold

Compound: CC[C@H](C)[C@H](NC[C@@H](NC[C@@H](N)CS)[C@@H](C)CC)C(=O)N[C@@H](CCO)C(=O)O [L-731,735, N-{2(S)-[2(R)-amino-3-mercaptopropylamino]-3(S)-methylpentyl}isoleucyl-homoserine]
farnesyl protein transferase inhibitory potency in vitro [3]: potent and selective inhibitor
effect on Ras processing in cells [4]: no effect on Ras processing

Compound: CC[C@H](C)[C@@H](CO[C@@H](Cc1ccccc1)C(=O)N[C@@H](CCS(C)(=O)=O)C(=O)O)NC[C@@H](N)CS [L-739,750]
farnesyl protein transferase inhibitory potency in vitro [3]: potent inhibitor

Compound: methyl ester Derivative of cysteinyl-(Nα-methyl)valyl-(Nα-cyclohexyl)glycyl-methionine [Semipeptoid 12]
effect on Rap1A/K-rev processing [5]: not affected
concentration range of dose dependent shift of Ras towards its unprocessed form ([6]; 48 hr incubation): 1 to 160 mM
pIC50 ([6]; 48 hr incubation, read-out: in situ IC50 (shift of Ras towards its unprocessed form)): 5.00

Compound: CC[C@H](C)C(=O)O[C@H]1C[C@@H](C)C=C2C=C[C@H](C)[C@H](CC[C@@H]3C[C@@H](O)CC(=O)O3)[C@H]21 [lovastatin, reference compound]
effect on Rap1A/K-rev processing ([5]; 48 hr, western blot): did inhibit Rap1A/K-rev processing
effect on Ras processing ([6]; 48 hr, compared with vehicle): increased amount of unprocessed Ras versus processed Ras

Compound: CVLS: CAAX tetrapeptide (SEQ ID NO:18); the result concerns its farnesylated form (C(Farnesyl)VLS)
fold less potent as inhibitor: farnesylated peptide versus its corresponding tetrapeptide ([3]; farnesylated form of the peptide): about 13 fold

Compound: CSCC[C@H](NC(=O)CN(Cc1ccccc1)C(=O)[C@@H](NC(=O)[C@@H](N)CS)C(C)C)C(=O)O [Semipeptoid 1, cysteinyl-valyl-(Nα-benzyl)glycyl-methionine] (H-CV[Nphe]M-OH)
alternative substrate (inhibitor itself farnesylated) (FT): no
pIC50 [1]: 4.40
pIC50 [2]: 7.00
fold more potent than compound 5 (FT) ([2]; versus compound 5): 130 fold
fold more potent than compound 8 (FT) ([2]; versus compound 8): 500 fold
